Structures can show the parent of a compound that is named as a salt.
Assays:
[1] = Determination of solubility of compounds (HPLC); details: thermodynamic from solid
Procedure: Experimental method: representative compounds 2, 4 and 7 were selected for solubility determination, and retapamulin hydrochloride was used as a control. 1 mg of each sample was taken and quantitatively dissolved in a 10 mL volumetric flask, and the absorption peak area was measured by a high-performance liquid chromatography; then, the saturated solutions of the representative compounds 2, 4 and 7 and the control drug retapamulin were diluted 10-fold, and the absorption peak area was determined by HPLC; their respective solubility was obtained by calculating the absorption peak area.
The experimental instrument was Shimadzu LC-16, the chromatographic column was Hypersil C18 ODS (4.6×250 mm×5 μm), the flow rate was 1.0 mL/min, the detection wavelength was 300 nm, and the mobile phase was 0.05 mol/L of aqueous acetic acid solution:acetonitrile=30:70.

[2] = test system: Mycoplasma synoviae WVU1853 strain (MS-WVU1853; NCTC 10124); assay: Anti-mycoplasma activity assay, MIC; format: cell-based; details: Mycoplasmopsis synoviae, NCTC10124
Procedure: (§1) The minimum inhibitory concentration of the pleuromutilin derivative containing thiazole-pyridine benzyl quaternary ammonium salt side chain against different mycoplasmas was tested with tiamulin as (purchased from Shanghai Yuanye Bio-Technology Co., Ltd) a positive control using a microbroth dilution method, and the antibacterial effect of the compound against different mycoplasmas was evaluated.
(§2) Experimental strains include Mycoplasma hyopneumoniae standard strain J strain (Mhp-J; NCTC 10110), Mycoplasma hyopneumoniae clinical isolate LH strain (Mhp-LH), Mycoplasma hyorhini standard strain BTS-7 strain (Mhr-BTS-7; NCTC 10130), Mycoplasma gallisepticum R strain (MG-R) and Mycoplasma synoviae WVU1853 strain (MS-WVU1853; NCTC 10124) (purchased from National Collection of Type Cultures, United Kingdom).
(§3) The specific operation steps are as follows: • (1) preparation of KM2 medium: 38.9 g of KM2 medium (purchased from Guangdong Huankai Microbial Sci. & Tech. Co., Ltd.) was weighed, added to 800 mL of distilled water, boiled and dissolved, and autoclaved at 115° C. for 20 min for later use. • (2) preparation of bacterial liquid stock: 0.5 mL of each of Mycoplasma hyopneumoniae (Mhp), Mycoplasma hyorhina (Mhr), Mycoplasma gallisepticum (MG) and Mycoplasma synoviae (MS) was taken and transferred to 4.5 mL of KM2 liquid medium, and when the colour of the medium turned yellow, each of the bacteria was sub-packaged at 0.5 mL per tube, and stored as the bacterial liquid at −70° C. • (3) determination of bacterial liquid titre (colour change unit, CCU): 96-well plate method was used to measure the bacterial liquid titre. The preserved bacterial liquid stock was taken from −70° C., melt and equilibrated to room temperature. 0.18 mL of KM2 medium was added to each well of the middle 4 rows of the 96-well plate (that is, 4 parallels), 0.02 mL of the bacterial liquid stock was taken and added to the wells of the first column, respectively, and subjected to 10-fold dilution until 10^−11. A negative control containing only KM2 medium was set (column 12). The plate was sealed and put into an incubator at 37° C., and the results were observed day by day. The highest dilution at which the colour of the medium can change was the CCU/mL of the strain. • (4) determination of MIC: the minimum inhibitory concentration of the compound against mycoplasmas was determined by a microbroth dilution method. Each drug to be tested was prepared as a stock solution with a concentration of 2560 μg/mL, and each drug stock solution was 2-fold diluted with KM2 liquid medium, and the test concentration range was 0.015-128 μg/mL (large concentration gradient) and 0.000004-0.06 μg/mL (small concentration gradient). An appropriate amount of seed bacterial liquid was taken and diluted to 10^4 CCU/mL serially according to its titre. Drugs of various dilutions were added sequentially to the 96-well plate, and then an equal amount of diluted bacterial liquid was added. 200 μL of diluted mycoplasma liquid was set as a positive control, 200 μL of KM2 liquid culture medium was set as a negative control, and a solvent control group (10 μL of drug solvent+190 μL of mycoplasma liquid) was also set. Three parallels were set for each experiment. After all the culture plates were sealed, they were allowed to culture at 37° C. and observed daily, and the final MIC values were recorded. (See FIG. 22 for the MIC determination results of the representative compound 7 against 5 mycoplasma strains)

[3] = test system: Mycoplasma hyopneumoniae standard strain J strain (Mhp-J; NCTC 10110); assay: Anti-mycoplasma activity assay, MIC; format: cell-based; details: Mesomycoplasma hyopneumoniae, NCTC10110
Procedure: as §1, §2, §3

[4] = test system: Mycoplasma hyorhini standard strain BTS-7 strain (Mhr-BTS-7; NCTC 10130); assay: Anti-mycoplasma activity assay, MIC; format: cell-based; details: NCTC10130
Procedure: as §1, §2, §3

[5] = test system: Mycoplasma hyopneumoniae clinical isolate LH strain (Mhp-LH); assay: Anti-mycoplasma activity assay, MIC; format: cell-based; details: Mesomycoplasma hyopneumoniae
Procedure: as §1, §2, §3

[6] = test system: Mycoplasma gallisepticum R strain (MG-R); assay: Anti-mycoplasma activity assay, MIC; format: cell-based; details: Mycoplasmoides gallisepticum
Procedure: as §1, §2, §3

[7] = test system: vancomycin-resistant Enterococcus faecalis (VRE) 18-507; assay: MIC, clinical drug-resistant bacteria; format: cell-based; details: VRE 18-507; read-out: Minimum inhibitory concentration against clinical drug-resistant bacteria
Procedure: (§4) The minimum inhibitory concentration (MIC) of the pleuromutilin derivative containing thiazole-pyridine benzyl quaternary ammonium salt side chain was tested with moxifloxacin as a positive control (purchased from Shanghai Macklin Biochemical Technology Co., Ltd.) using a microbroth dilution method. At the same time, the pleuromutilin derivative containing thiazole-pyridine benzyl quaternary ammonium salt side chain of the invention was compared with the marketed pleuromutilin antibiotics, such as retapamulin (purchased from Nanjing Chemlin Chemical Industry Co., Ltd.), tiamulin (purchased from Shanghai Yuanye Bio-Technology Co., Ltd) and valnemulin (purchased from Shanghai Acmec Biochemical Co., Ltd), in order to screen out pleuromutilin derivatives with better activity.
(§5) Clinical resistant bacteria include multidrug-resistant Pseudomonas aeruginosa (MDR-PA) 18-993, 18-756 and 18-126, multidrug-resistant Klebsiella pneumoniae (MDR-KP) 18-893, 18-754 and 18-1482, methicillin-resistant Staphylococcus aureus (MRSA) 18-171, 18-209 and 18-575, vancomycin-resistant Enterococcus faecalis (VRE) 18-94, 18-80 and 18-507, and carbapenem-resistant Acinetobacter baumannii (CR-AB) 18-184, 18-560 and 18-882, all the clinical drug-resistant strains were from Huashan Hospital, Fudan University.

[8] = test system: multidrug-resistant Klebsiella pneumoniae (MDR-KP) 18-893; assay: MIC, clinical drug-resistant bacteria; format: cell-based; details: MDR-KP 18-893, read-out: Minimum inhibitory concentration against clinical drug-resistant bacteria
Procedure: as §4, §5

[9] = test system: multidrug-resistant Klebsiella pneumoniae (MDR-KP) 18-1482; assay: MIC, clinical drug-resistant bacteria; format: cell-based; details: MDR-KP 18-1482, read-out: Minimum inhibitory concentration against clinical drug-resistant bacteria
Procedure: as §4, §5

[10] = test system: multidrug-resistant Pseudomonas aeruginosa (MDR-PA) 18-126; assay: MIC, clinical drug-resistant bacteria; format: cell-based; details: MDR-PA 18-126, read-out: Minimum inhibitory concentration against clinical drug-resistant bacteria
Procedure: as §4, §5

solubility ([1]; organic solvent or mixture): 11300 µg/mL
solubility ([1]; pH 1.5, simulated gastric fluid): 3450 µg/mL
solubility ([1]; pH 7, water): 2540 µg/mL
MIC [2]: 0.015 µg/mL
MIC [3]: 0.004 µg/mL
MIC [4]: 0.008 µg/mL
MIC [5]: 0.002 µg/mL
MIC [6]: 0.004 µg/mL
MIC [7]: 64 µg/mL
MIC [8]: 16 µg/mL
MIC [9]: 16 µg/mL
MIC [10]: 8 µg/mL
SMILES: C=C[C@]1(C)C[C@@H](OC(=O)CSc2nc(-c3cc[n+](Cc4ccc([N+](=O)[O-])cc4)cc3)cs2)[C@]2(C)[C@H](C)CC[C@]3(CCC(=O)[C@H]32)[C@@H](C)[C@@H]1O [Compound 7, 1-(4-(nitro)benzyl)-4-(2-(8-hydroxy-4,7,9,12-tetramethyl-3-oxo-7-vinyldecahydro-4,9a-propancyclopent[8]cyclen-5-yl)oxy)-2-oxoethyl)thiazol-4-yl)pyridyl bromide salt]
